ChEMBL document CHEMBL3880428, “Sulfonamide derivative having PGD2 receptor antagonistic activity” (2012)

Experiments:
Format in all cases: cell-based
HEK293 [1] = experiment: Selectivity ratio of IC50 for PGD2 receptor in human platelets to IC50 for human EP3 receptor expressed in HEK293 cells by cAMP accumulation assay
HEK293 [2] = experiment: Selectivity ratio of IC50 for PGD2 receptor in human platelets to IC50 for human IP receptor expressed in HEK293 cells by cAMP accumulation assay
HEK293 [3] = experiment: Selectivity ratio of IC50 for PGD2 receptor in human platelets to IC50 for human EP2 receptor expressed in HEK293 cells by cAMP accumulation assay
HEK293 [4] = experiment: Selectivity ratio of IC50 for PGD2 receptor in human platelets to IC50 for human EP4 receptor expressed in HEK293 cells by cAMP accumulation assay
HEK293 [5] = experiment: Selectivity ratio of IC50 for PGD2 receptor in human platelets to IC50 for human FP receptor expressed in HEK293 cells by cAMP accumulation assay
HEK293 [6] = experiment: Selectivity ratio of IC50 for PGD2 receptor in human platelets to IC50 for human TP receptor expressed in HEK293 cells by cAMP accumulation assay
HEK293 [7] = experiment: Selectivity ratio of IC50 for PGD2 receptor in human platelets to IC50 for human EP1 receptor expressed in HEK293 cells by cAMP accumulation assay

Measured: Ratio IC50

CC(C)Oc1ccc(S(=O)(=O)N2CCN(c3ccc(NC(=O)c4ccccc4)c(OCC(=O)O)c3)CC2)cc1
> 20: HEK293 [1] | HEK293 [2] | HEK293 [3] | HEK293 [4] | HEK293 [5] | HEK293 [6] | HEK293 [7]

Cc1ccc(N2CCN(S(=O)(=O)c3ccc(OC(C)C)cc3)CC2)cc1OCC(=O)O
> 20: HEK293 [1] | HEK293 [2] | HEK293 [3] | HEK293 [4] | HEK293 [5] | HEK293 [6] | HEK293 [7]

CC(C)Oc1ccc(S(=O)(=O)N2CCN(c3cc(F)c(F)c(OCC(=O)O)c3)CC2)cc1
> 20: HEK293 [1] | HEK293 [2] | HEK293 [3] | HEK293 [4] | HEK293 [5] | HEK293 [6] | HEK293 [7]

COc1cccc(OC2CCN(S(=O)(=O)c3ccc(OC(C)C)cc3)CC2)c1/C=C/C(=O)O
> 20: HEK293 [1] | HEK293 [2] | HEK293 [3] | HEK293 [4] | HEK293 [5] | HEK293 [6] | HEK293 [7]

CC(C)Oc1ccc(S(=O)(=O)N2CCN(c3ccc(-n4cccn4)c(OCC(=O)O)c3)CC2)cc1
> 20: HEK293 [1] | HEK293 [2] | HEK293 [3] | HEK293 [4] | HEK293 [5] | HEK293 [6] | HEK293 [7]

CC(C)Oc1ccc(S(=O)(=O)N2CCN(c3ccc(-c4ccccc4)c(OCC(=O)O)c3)CC2)cc1
> 20: HEK293 [1] | HEK293 [2] | HEK293 [3] | HEK293 [4] | HEK293 [5] | HEK293 [6] | HEK293 [7]

CC(C)Oc1ccc(S(=O)(=O)N2CCN(c3ccc(C(N)=O)c(OCC(=O)O)c3)CC2)cc1
> 20: HEK293 [1] | HEK293 [2] | HEK293 [3] | HEK293 [4] | HEK293 [5] | HEK293 [6] | HEK293 [7]

CC[C@@H](C)Oc1ccc(S(=O)(=O)N2CCN(c3ccc(Cl)c(OCC(=O)O)c3)CC2)cc1
> 20: HEK293 [1] | HEK293 [2] | HEK293 [3] | HEK293 [4] | HEK293 [5] | HEK293 [6] | HEK293 [7]

CC(C)Oc1ccc(S(=O)(=O)N2CCN(c3cc(OCC(=O)O)ccc3Cl)CC2)cc1
> 20: HEK293 [1] | HEK293 [2] | HEK293 [3] | HEK293 [4] | HEK293 [5] | HEK293 [6] | HEK293 [7]

CC(C)Oc1ccc(S(=O)(=O)N2CCN(c3ccc(-c4cocn4)c(OCC(=O)O)c3)CC2)cc1
> 20: HEK293 [1] | HEK293 [2] | HEK293 [3] | HEK293 [4] | HEK293 [5] | HEK293 [6] | HEK293 [7]

CC(C)Oc1ccc(S(=O)(=O)N2CCN(c3ccc(C(=O)Nc4ccccc4)c(OCC(=O)O)c3)CC2)cc1
> 20: HEK293 [1] | HEK293 [2] | HEK293 [3] | HEK293 [4] | HEK293 [5] | HEK293 [6] | HEK293 [7]

CC(C)Oc1ccc(S(=O)(=O)N2CCN(c3ccc(NC(=O)c4cccnc4)c(OCC(=O)O)c3)CC2)cc1
> 20: HEK293 [1] | HEK293 [2] | HEK293 [3] | HEK293 [4] | HEK293 [5] | HEK293 [6] | HEK293 [7]

Cc1cnc(-c2ccc(N3CCN(S(=O)(=O)c4ccc(OC(C)C)cc4)CC3)cc2OCC(=O)O)o1
> 20: HEK293 [1] | HEK293 [2] | HEK293 [3] | HEK293 [4] | HEK293 [5] | HEK293 [6] | HEK293 [7]

Cc1cc(OCC(=O)O)cc(N2CCN(S(=O)(=O)c3ccc(OC(C)C)cc3)CC2)c1
> 20: HEK293 [1] | HEK293 [2] | HEK293 [3] | HEK293 [4] | HEK293 [5] | HEK293 [6] | HEK293 [7]

CC(C)Oc1ccc(S(=O)(=O)N2CCN(c3ccc(-c4nccs4)c(OCC(=O)O)c3)CC2)cc1
> 20: HEK293 [1] | HEK293 [2] | HEK293 [3] | HEK293 [4] | HEK293 [5] | HEK293 [6] | HEK293 [7]

CC(C)Oc1ccc(S(=O)(=O)N2CCC(c3ccc(Cl)c(OCC(=O)O)c3)CC2)cc1
> 20: HEK293 [1] | HEK293 [2] | HEK293 [3] | HEK293 [4] | HEK293 [5] | HEK293 [6] | HEK293 [7]

CC(C)Oc1ccc(S(=O)(=O)N2CCN(c3ccc(C(=O)Nc4nccs4)c(OCC(=O)O)c3)CC2)cc1
> 20: HEK293 [1] | HEK293 [2] | HEK293 [3] | HEK293 [4] | HEK293 [5] | HEK293 [6] | HEK293 [7]

CC(C)Oc1ccc(S(=O)(=O)N2CCC(Oc3ccccc3CCC(=O)O)CC2)cc1
> 20: HEK293 [1] | HEK293 [2] | HEK293 [3] | HEK293 [4] | HEK293 [5] | HEK293 [6] | HEK293 [7]

CC(C)Oc1ccc(S(=O)(=O)N2CCC(Oc3ccc(Cl)cc3CCC(=O)O)CC2)cc1
> 20: HEK293 [1] | HEK293 [2] | HEK293 [3] | HEK293 [4] | HEK293 [5] | HEK293 [6] | HEK293 [7]

CC(C)Oc1ccc(S(=O)(=O)N2CCN(c3ccc(Cl)c(OCC(=O)O)c3)CC2)cc1F
> 20: HEK293 [1] | HEK293 [2] | HEK293 [3] | HEK293 [4] | HEK293 [5] | HEK293 [6] | HEK293 [7]

CC(C)Oc1ccc(S(=O)(=O)N2CCC(Oc3ccc(F)cc3CCC(=O)O)CC2)cc1
> 20: HEK293 [1] | HEK293 [2] | HEK293 [3] | HEK293 [4] | HEK293 [5] | HEK293 [6] | HEK293 [7]

CC(C)Oc1ccc(S(=O)(=O)N2CCN(c3cc(F)c(F)c(OCC(=O)O)c3)CC2)cn1
> 20: HEK293 [1] | HEK293 [2] | HEK293 [3] | HEK293 [4] | HEK293 [5] | HEK293 [6] | HEK293 [7]

CC(C)Oc1ccc(S(=O)(=O)N2CCN(c3ccc(C(=O)Nc4nc5ccccc5[nH]4)c(OCC(=O)O)c3)CC2)cc1
> 20: HEK293 [1] | HEK293 [2] | HEK293 [3] | HEK293 [4] | HEK293 [5] | HEK293 [6] | HEK293 [7]

CC(C)Oc1ccc(S(=O)(=O)N2CCN(c3ccc(NC(=O)c4ccco4)c(OCC(=O)O)c3)CC2)cc1
> 20: HEK293 [1] | HEK293 [2] | HEK293 [3] | HEK293 [4] | HEK293 [5] | HEK293 [6] | HEK293 [7]

CC(C)Oc1ccc(S(=O)(=O)N2CCN(c3cc(Cl)cc(OCC(=O)O)c3)CC2)cc1
> 20: HEK293 [1] | HEK293 [2] | HEK293 [3] | HEK293 [4] | HEK293 [5] | HEK293 [6] | HEK293 [7]

CC(C)Oc1ccc(S(=O)(=O)N2CC=C(c3ccc(Cl)c(OCC(=O)O)c3)CC2)cc1
> 20: HEK293 [1] | HEK293 [2] | HEK293 [3] | HEK293 [4] | HEK293 [5] | HEK293 [6] | HEK293 [7]

COc1cccc(OC2CCN(S(=O)(=O)c3ccc(OC(C)C)cc3)CC2)c1CCC(=O)O
> 20: HEK293 [1] | HEK293 [2] | HEK293 [3] | HEK293 [4] | HEK293 [5] | HEK293 [6] | HEK293 [7]

CC(C)OC(=O)Nc1ccc(N2CCN(S(=O)(=O)c3ccc(OC(C)C)cc3)CC2)cc1OCC(=O)O
> 20: HEK293 [1] | HEK293 [2] | HEK293 [3] | HEK293 [4] | HEK293 [5] | HEK293 [6] | HEK293 [7]

CC(C)Oc1ccc(S(=O)(=O)N2CCN(c3cc(Br)cc(OCC(=O)O)c3)CC2)cc1
> 20: HEK293 [1] | HEK293 [2] | HEK293 [3] | HEK293 [4] | HEK293 [5] | HEK293 [6] | HEK293 [7]

CC(C)Oc1ccc(S(=O)(=O)N2CCN(c3cc(OCC(=O)O)cc(-c4ccccc4)c3)CC2)cc1
> 20: HEK293 [1] | HEK293 [2] | HEK293 [3] | HEK293 [4] | HEK293 [5] | HEK293 [6] | HEK293 [7]

CC(C)Oc1ccc(S(=O)(=O)N2CCN(c3ccc(Cl)c(OCC(=O)O)c3)CC2C)cc1 (stereo not drawn)
> 20: HEK293 [1] | HEK293 [2] | HEK293 [3] | HEK293 [4] | HEK293 [5] | HEK293 [6] | HEK293 [7]

COC(=O)Nc1ccc(N2CCN(S(=O)(=O)c3ccc(OC(C)C)cc3)CC2)cc1OCC(=O)O
> 20: HEK293 [1] | HEK293 [2] | HEK293 [3] | HEK293 [4] | HEK293 [5] | HEK293 [6] | HEK293 [7]

CC(C)Oc1ccc(S(=O)(=O)N2CCN(c3ccc(C(=O)NCc4cccs4)c(OCC(=O)O)c3)CC2)cc1
> 20: HEK293 [1] | HEK293 [2] | HEK293 [3] | HEK293 [4] | HEK293 [5] | HEK293 [6] | HEK293 [7]

CNC(=O)c1ccc(N2CCN(S(=O)(=O)c3ccc(OC(C)C)cc3)CC2)cc1OCC(=O)O
> 20: HEK293 [1] | HEK293 [2] | HEK293 [3] | HEK293 [4] | HEK293 [5] | HEK293 [6] | HEK293 [7]
